Earlier results in PMC11577316, “Tuning the Properties of Rigidified Acyclic DEDPA^2– Derivatives for Application in PET Using Copper-64” (Inorganic Chemistry, 2024).
Like-named read-outs stand apart in the source and are kept apart here. Marks after values point to notes of the source that are not given here.

Tests used:
[1] = not given; remark: listed apart in the source
[2] = set-up: method as in PMID 22583103; conditions: vs Ag/AgCl ref 28
[3] = not given; remark: listed apart in the source

## O=C(O)c1cccc(CNCCNCc2cccc(C(=O)O)n2)n1 [DEDPA^2–, 6,6′-((ethane-1,2-diylbis(azanediyl))bis(methylene))dipicolinic acid]
0.1 M (Me4N)(NO3) ref 25
  log K1^H: 8.69
  log K2^H: 6.18
  log K3^H: 3.08
  log K4^H: 2.33
0.15 M NaCl ref 26
  log K1^H: 9.00
  log K2^H: 6.30
  log K3^H: 3.06
  log K4^H: 2.59
[1]; Cu(II) complex, 0.15 M NaCl ref 28
  log KCuL: 19.16 ^d
[1]; –log [Cu(II)]free, [L]tot = 10 μM, [Cu(II)]tot = 1 μM, column footnote c: 0.15 M NaCl ref 26
  pCu: 18.5

## O=C([O-])c1cccc(CNCCNCc2cccc(C(=O)[O-])n2)n1.[Cu+2] [[Cu(DEDPA)]]
[2]
  irreversible reduction peak: −1.12 V

## O=C([O-])c1cccc(CNCCNCc2cccc(C(=O)[O-])n2)n1.[64Cu+2] [[^64Cu(DEDPA)]]
[3]
  stability in serum: poor stability in serum
